Measured values as given in patent US20050070468A1, “Use of fk506 and analogues for treating allergic diseases” (SUCAMPO AG, priority 2001, published 2005).

System: Patients with allergic conjunctivitis
Assay: Antigen instillation into the eye of patients with allergic conjunctivitis; itchiness of the eye scored in 9 levels, improvement rate versus base line
Format: in vivo, human
Conditions: for improvement (%) of group with pre-administration: once a day for one week, antigen given 16 hr after last instillation; for improvement (%) of group with pre-administration / improvement (%) of group without pre-administration: itchiness 3 min later, proportion of patients with at least 1 point lower itchiness than base line; for improvement (%) of group without pre-administration: single instillation, antigen given 8 hr after instillation
Procedure: Patients with allergic conjunctivitis (3 groups, 30 patients per group) were instilled with an antigen into the eye. Three minutes later, itchiness of the eye was evaluated in 9 levels (0, 0.5, 1, 1.5, 2, 2.5, 3, 3.5, 4), and the average value (base line group) of itchiness was determined. A specific antigen was determined for each patient. […] At least one week was allowed to lapse from the test of Method 1, and FK506 eye drop (suspension) [0.03%, 0.06% or 0.1%] was instilled into the eye of the patients. At 8 hr after the instillation of the eye drop, the antigen was given. Three minutes later, itchiness of the eye was evaluated in the same manner as in Method 1, and the average value (without pre-administration) of itchiness was determined. […] At least one week was allowed to lapse from the test of Method 2, and FK506 eye drop was instilled into the eye of the patients once a day for one week. At 16 hr after the last instillation of the eye drop, the antigen was given. Three minutes later, itchiness of the eye was evaluated in the same manner as in Method 1, and the average value (with pre-administration) of itchiness was determined.

C=CC[C@@H]1/C=C(\C)C[C@H](C)C[C@H](OC)[C@H]2O[C@@](O)(C(=O)C(=O)N3CCCC[C@H]3C(=O)O[C@H](/C(C)=C/[C@@H]3CC[C@@H](O)[C@H](OC)C3)[C@H](C)[C@@H](O)CC1=O)[C@H](C)C[C@@H]2OC [FK506, 17-allyl-1,14-dihydroxy-12-[2-(4-hydroxy-3-methoxycyclohexyl)-1-methylvinyl]-23,25-dimethoxy-13,19,21,27-tetramethyl-11,28-dioxa-4-azatricyclo-[22.3.1.0^4,9]octacos-18-ene-2,3,10,16-tetraone]
improvement rate of the group with pre-administration after 16 hr compared with the group without pre-administration after 8 hr (0.1% concentration groups): markedly higher
improvement (%) of group with pre-administration (FK506 eye drop 0.03%): 61.54%
improvement (%) of group with pre-administration (FK506 eye drop 0.06%): 65.52%
improvement (%) of group with pre-administration (FK506 eye drop 0.1%): 72.41%
improvement (%) of group without pre-administration (FK506 eye drop (suspension) 0.03%): 25.93%
improvement (%) of group without pre-administration (FK506 eye drop (suspension) 0.06%): 40.00%
improvement (%) of group without pre-administration (FK506 eye drop (suspension) 0.1%): 56.67%
improvement effect on the itchiness by setting a leading period for pre-administration (with versus without pre-administration, all concentrations): strikingly enhanced
